Results as given in patent US20250163044A1, “COMPOUNDS” (PSYLO PTY LTD, priority 2021, published 2025).

Columns and labels:
Type in all cases: cell-based
5-HT2B receptor = target: T1, 5-HT2B receptor (Homo sapiens, UniProt P41595); experiment: FLIPR Ca2+ flux functional assay, agonist activity at 5-HT2B; conditions: CHO-K1 cells, Ca2+ flux; for EC50: read-out: 5-HT2B EC50
T1 construct: host or cells: CHO-K1
Description: (§1) Activity at 5-HT2A, 5-HT2B and 5-HT2C receptors was determined using a FLIPR Ca2+ flux assay at WuXi AppTec Co. Ltd. (Hong Kong) Discovery Biology Unit according to their standard protocols. Briefly, stably transfected cells expressing the receptor of interest (HEK293 for 5-HT2A and 5-HT2C; CHO-K1 for 5-HT2B) were grown and plated in a 384 well plate and incubated at 37° C. and 5% CO2 overnight. A 250 mM stock solution of probenecid in FLIPR calcium assay buffer (10 mL) was freshly prepared and combined with a fluorescent dye (Fluo-4 Direct) to give a final assay concentration of 2.5 mM. Reference compounds were 4-fold serially diluted and the screening compounds were 3-fold serially diluted in 100% DMSO for 10 points using Agilent Bravo, and 750 nL was added to a 384 well compound plate using Echo along with 30 μL assay buffer. The fluorescent dye was then added to the assay plate along with assay buffer to a final volume of 40 μL. The cell plate was incubated for 50 min at 37° C. and 5% CO2 and placed into the FLIPR Tetra along with the compound plate. 10 μL of references and compounds were then transferred from the compound plate into the cell plate and the fluorescent signal was read.

5-HT2C receptor = target: T2, 5-HT2C receptor (Homo sapiens, UniProt P28335); experiment: FLIPR Ca2+ flux functional assay, agonist activity at 5-HT2C; conditions: HEK293 cells, Ca2+ flux; for EC50: read-out: 5-HT2C EC50
T2 construct: host or cells: HEK293
T2 sequence (P28335 33-458): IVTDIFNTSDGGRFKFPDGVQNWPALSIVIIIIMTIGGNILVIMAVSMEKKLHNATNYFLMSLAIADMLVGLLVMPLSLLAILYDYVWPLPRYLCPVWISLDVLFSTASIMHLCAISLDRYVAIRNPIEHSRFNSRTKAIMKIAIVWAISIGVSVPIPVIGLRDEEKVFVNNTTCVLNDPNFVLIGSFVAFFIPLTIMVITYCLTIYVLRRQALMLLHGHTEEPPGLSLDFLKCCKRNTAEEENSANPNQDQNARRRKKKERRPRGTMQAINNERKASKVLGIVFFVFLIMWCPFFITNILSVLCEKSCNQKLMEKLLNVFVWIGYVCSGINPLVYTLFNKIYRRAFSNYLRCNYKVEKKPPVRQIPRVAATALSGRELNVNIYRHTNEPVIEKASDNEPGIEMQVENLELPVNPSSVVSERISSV
Description: as §1

5-HT2A receptor = target: T3, 5-HT2A receptor (Homo sapiens, UniProt P28223); experiment: FLIPR Ca2+ flux functional assay, agonist activity at 5-HT2A; conditions: HEK293 cells, Ca2+ flux; for EC50: read-out: 5-HT2A EC50
T3 construct: host or cells: HEK293
Description: as §1

T3 sequence (P28223 whole entry): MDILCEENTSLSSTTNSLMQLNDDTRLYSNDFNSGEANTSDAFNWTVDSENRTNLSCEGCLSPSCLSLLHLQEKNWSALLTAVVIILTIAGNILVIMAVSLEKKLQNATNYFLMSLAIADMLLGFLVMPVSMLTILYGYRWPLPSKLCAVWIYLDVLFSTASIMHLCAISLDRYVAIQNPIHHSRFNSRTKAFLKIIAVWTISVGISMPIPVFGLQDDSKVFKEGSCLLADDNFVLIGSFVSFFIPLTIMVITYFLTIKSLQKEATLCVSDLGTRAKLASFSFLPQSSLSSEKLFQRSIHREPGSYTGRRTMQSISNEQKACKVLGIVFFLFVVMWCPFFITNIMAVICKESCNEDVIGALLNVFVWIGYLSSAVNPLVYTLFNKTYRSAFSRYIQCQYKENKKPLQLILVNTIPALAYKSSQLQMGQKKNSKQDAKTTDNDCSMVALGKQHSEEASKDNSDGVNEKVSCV
T1 sequence (P41595 whole entry): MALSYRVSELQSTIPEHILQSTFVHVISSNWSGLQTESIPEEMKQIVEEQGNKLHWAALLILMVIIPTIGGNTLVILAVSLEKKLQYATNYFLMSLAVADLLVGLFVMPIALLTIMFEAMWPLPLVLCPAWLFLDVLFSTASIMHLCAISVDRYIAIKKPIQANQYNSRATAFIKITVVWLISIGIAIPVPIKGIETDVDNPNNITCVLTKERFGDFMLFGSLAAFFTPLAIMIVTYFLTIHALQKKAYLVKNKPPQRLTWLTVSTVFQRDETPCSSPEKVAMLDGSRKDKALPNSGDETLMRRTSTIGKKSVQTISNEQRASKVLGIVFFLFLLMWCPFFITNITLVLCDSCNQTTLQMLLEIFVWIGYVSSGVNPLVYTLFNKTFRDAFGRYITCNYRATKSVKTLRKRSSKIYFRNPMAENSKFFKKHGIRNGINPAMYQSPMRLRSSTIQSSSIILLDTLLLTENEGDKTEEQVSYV

SMILES | EC50 (5-HT2B receptor) [µM] | EC50 (5-HT2C receptor) [µM] | EC50 (5-HT2A receptor) [µM] | Emax (5-HT2A receptor) [%] | Emax (5-HT2B receptor) [%] | Emax (5-HT2C receptor) [%]
CN(C)CCc1n[nH]c2cccc(O)c12 [Example P-6] | > 10 | > 10 | – | – | – | –
CN(C)CCc1n[nH]c2ccccc12 [Example P-7] | > 10 | 2.34 | > 10 | – | – | –
COc1ccc2onc(CCN(C)C)c2c1 [Example P-9, 2-(5-methoxybenzo[d]isoxazol-3-yl)-N,N-dimethylethan-1-amine] | > 10 | > 10 | 1.02 | 37.3 | 2.53 | -30.5
CCN(CC)CCc1c[nH]c2ccc(OC)nc12 [Example P-10, 2-(5-Methoxy-1H-pyrrolo[3,2-b]pyridin-3-yl)-N,N-diethylethan-1-amine] | 0.284 | 0.0686 | 0.00611 | 82.8 | 47.1 | 99.1
CCCN(CCC)CCc1c[nH]c2ccc(OC)nc12 [Example P-11, 2-(5-methoxy-1H-pyrrolo[3,2-b]pyridin-3-yl)-N,N-dipropylethan-1-amine] | 0.0522 | 0.0911 | 0.00417 | 99.1 | 92.1 | 96.3
COc1ccc2[nH]cc(CCN(C(C)C)C(C)C)c2n1 [Example P-12, N-isopropyl-N-(2-(5-methoxy-1H-pyrrolo[3,2-b]pyridin-3-yl)ethyl)propan-2-amine] | 0.0222 | 0.2 | 0.00696 | 85.7 | 102 | 110
CCN(C)CCc1c[nH]c2ccc(OC)nc12 [Example P-13, N-ethyl-2-(5-methoxy-1H-pyrrolo[3,2-b]pyridin-3-yl)-N-methylethan-1-amine] | > 10 | 0.0319 | 0.0101 | 79.6 | 2.25 | 95.8
COc1ccc2[nH]cc(CCN(C)C(C)C)c2n1 [Example P-14, N-(2-(5-methoxy-1H-pyrrolo[3,2-b]pyridin-3-yl)ethyl)-N-methylpropan-2-amine] | > 10 | 0.139 | 0.021 | 78.9 | 1.06 | 98.3
CCN(CC)CCc1c[nH]c2ncc(OC)cc12 [Example P-17, 2-(5-methoxy-1H-pyrrolo[2,3-b]pyridin-3-yl)-N,N-diethylethan-1-amine] | > 10 | > 10 | 0.279 | 84.7 | 0.37 | -0.53
CCCN(CCC)CCc1c[nH]c2ncc(OC)cc12 [Example P-18, 2-(5-methoxy-1H-pyrrolo[2,3-b]pyridin-3-yl)-N,N-dipropylethan-1-amine] | > 10 | > 10 | 0.0855 | 89.4 | 9.35 | -0.33
COc1cnc2[nH]cc(CCN(C(C)C)C(C)C)c2c1 [Example P-19, N-isopropyl-N-(2-(5-methoxy-1H-pyrrolo[2,3-b]pyridin-3-yl)ethyl)propan-2-amine] | > 10 | > 10 | 0.0729 | 112 | 13.3 | 0.16
CCN(C)CCc1c[nH]c2ncc(OC)cc12 [Example P-20, N-ethyl-2-(5-methoxy-1H-pyrrolo[2,3-b]pyridin-3-yl)-N-methylethan-1-amine] | > 10 | > 10 | 0.0933 | 76.7 | 1.38 | -0.08
COc1cnc2[nH]cc(CCN(C)C(C)C)c2c1 [Example P-21, N-(2-(5-methoxy-1H-pyrrolo[2,3-b]pyridin-3-yl)ethyl)-N-methylpropan-2-amine] | > 10 | > 10 | 0.109 | 79.8 | 4.56 | -0.15
Cc1cnc2[nH]cc(CCN(C)C)c2c1 [Example P-22, N,N-dimethyl-2-(5-methyl-1H-pyrrolo[2,3-b]pyridin-3-yl)ethan-1-amine] | > 10 | > 10 | 0.691 | 55.5 | 1.91 | 0.27
CCN(C)CCc1c[nH]c2ncc(C)cc12 [Example P-23, N-ethyl-N-methyl-2-(5-methyl-1H-pyrrolo[2,3-b]pyridin-3-yl)ethan-1-amine] | > 10 | > 10 | 1.24 | 55 | 0.88 | -0.04
CN(C)CCc1c[nH]c2ncc(F)cc12 [Example P-24, N,N-dimethyl-2-(5-fluoro-1H-pyrrolo[2,3-b]pyridin-3-yl)ethan-1-amine] | > 10 | > 10 | 0.0808 | 56.5 | 6.16 | 24.7
CCN(C)CCc1c[nH]c2ncc(F)cc12 [Example P-25, N-ethyl-N-methyl-2-(5-fluoro-1H-pyrrolo[2,3-b]pyridin-3-yl)ethan-1-amine] | > 10 | > 10 | 0.109 | 70.3 | 8.23 | 21
CCN(CC)CCc1c[nH]c2nccc(OC)c12 [Example P-26, N,N-diethyl-2-(4-methoxy-1H-pyrrolo[2,3-b]pyridin-3-yl)ethan-1-amine] | > 10 | > 10 | 1.62 | 58.3 | 3.08 | 0.9
COc1ccnc2[nH]cc(CCN(C(C)C)C(C)C)c12 [Example P-27, N-isopropyl-N-(2-(4-methoxy-1H-pyrrolo[2,3-b]pyridin-3-yl)ethyl)propan-2-amine] | > 10 | > 10 | 0.857 | 80.2 | 35.6 | 0.54
CCN(C)CCc1c[nH]c2nccc(OC)c12 [Example P-28, N-ethyl-2-(4-methoxy-1H-pyrrolo[2,3-b]pyridin-3-yl)-N-methylethan-1-amine] | > 10 | > 10 | 0.782 | 70.5 | 0.69 | -0.06
COc1ccnc2[nH]cc(CCN(C)C(C)C)c12 [Example P-29, N-(2-(4-methoxy-1H-pyrrolo[2,3-b]pyridin-3-yl)ethyl)-N-methylpropan-2-amine] | > 10 | > 10 | 0.555 | 71.6 | 0.59 | 0.48
Cc1ccnc2[nH]cc(CCN(C)C)c12 [Example P-30, N,N-dimethyl-2-(4-methyl-1H-pyrrolo[2,3-b]pyridin-3-yl)ethan-1-amine] | > 10 | > 10 | 0.387 | 56.6 | 0.03 | 1.04
CCN(C)CCc1c[nH]c2nccc(C)c12 [Example P-31, N-ethyl-N-methyl-2-(4-methyl-1H-pyrrolo[2,3-b]pyridin-3-yl)ethan-1-amine] | > 10 | > 10 | 1.02 | 54.5 | 1.01 | 0.01
Cc1nccc2[nH]cc(CCN(C)C)c12 [Example P-39] | – | – | > 10 | 1.47 | – | –
CCN(C)CCc1c[nH]c2ccnc(C)c12 [Example P-40] | – | – | > 10 | 0.75 | – | –
